The values below come from the SangsterLogP compilation.

The nature of one series: method code SF-CR, from PMID: 582926.
`C[C@@H]1O[C@@H](O[C@H]2CC[C@@]3(C)[C@H](CC[C@@H]4[C@@H]3CC[C@]3(C)[C@@H](C5=CC(=O)OC5)CC[C@]43O)C2)[C@H](O)[C@H](O)[C@H]1O` showed a logP of 2.1.
Same read-out and setting: under `CC(=O)O[C@H]1[C@@H](OC(C)=O)C[C@H](O[C@H]2[C@@H](OC(C)=O)C[C@H](O[C@H]3[C@@H](OC(C)=O)C[C@H](O[C@H]4CC[C@@]5(C)[C@H](CC[C@@H]6[C@@H]5CC[C@]5(C)[C@@H](C7=CC(=O)OC7)[C@@H](OC(C)=O)C[C@]65O)C4)O[C@@H]3C)O[C@@H]2C)O[C@@H]1C` stands 2.85; under `CO[C@H]1[C@H](O)[C@H](O[C@H]2CC[C@@]3(C=O)[C@H](CC[C@@H]4[C@@H]3CC[C@]3(C)[C@@H](C5=CC(=O)OC5)CC[C@]43O)C2)O[C@@H](C)[C@@H]1O`, 1.05; under `CC(=O)OC1CC(OC2CCC3(C)C(CCC4C3CC(O)C3(C)C(C5=CC(=O)OC5)CCC43O)C2)OC(C)C1OC1CC(O)C(OC2CC(O)C(O)C(C)O2)C(C)O1` (stereo not given), 1.71.
`C[C@@H]1O[C@@H](O[C@H]2CC[C@]3(C=O)[C@H]4CC[C@]5(C)[C@@H](C6=CC(=O)OC6)CC[C@]5(O)[C@@H]4CC[C@]3(O)C2)[C@H](O)[C@H](O)[C@H]1O` registered a log partition coefficient (logP) of -0.48.
The same measure, in the same setting: under `CO[C@H]1[C@H](O)[C@H](O[C@H]2CC[C@@]3(C)[C@H](CC[C@@H]4[C@@H]3CC[C@]3(C)[C@@H](C5=CC(=O)OC5)CC[C@]43O)C2)O[C@@H](C)[C@@H]1O` stands 2.1; under `CC1OC(OC2CCC3(CO)C4CCC5(C)C6(C=CC(=O)OC6)CCC5(O)C4CCC3(O)C2)CC(O)C1O` (stereo not given), 0.15; under `CC12CCC(OC3OC(CO)C(O)C(O)C3O)CC1CCC1C2CCC2(C)C(C3=CC(=O)OC3)CCC12O` (stereo not given), -0.64.
In turn, `C[C@H]1O[C@@H](O[C@H]2[C@@H](O)C[C@H](O[C@H]3[C@@H](O)C[C@H](O[C@H]4CC[C@@]5(C)[C@H](CC[C@@H]6[C@@H]5CC[C@]5(C)[C@@H](C7=CC(=O)OC7)[C@@H](O)C[C@]65O)C4)O[C@@H]3C)O[C@@H]2C)C[C@H](O)[C@@H]1O` had a log partition coefficient (logP) of 1.66.
The same measure, in the same setting: under `CC(=O)O[C@H]1C[C@]2(O)[C@@H]3CC[C@@H]4C[C@@H](O[C@H]5C[C@H](O)[C@H](O[C@H]6C[C@H](O)[C@H](O[C@H]7C[C@H](O)[C@H](O)[C@@H](C)O7)[C@@H](C)O6)[C@@H](C)O5)CC[C@]4(C)[C@H]3CC[C@]2(C)[C@H]1C1=CC(=O)OC1` stands 2.15; under `CC(=O)O[C@H]1C[C@H](O[C@H]2CC[C@@]3(C)[C@H](CC[C@@H]4[C@@H]3C[C@@H](O)[C@]3(C)[C@@H](C5=CC(=O)OC5)CC[C@]43O)C2)O[C@H](C)[C@H]1O[C@H]1C[C@H](OC(C)=O)[C@H](O[C@H]2C[C@H](O)[C@H](O)[C@@H](C)O2)[C@@H](C)O1`, 2.45; under `COC1CC(OC2CC[C@@]3(C)[C@H](CC[C@@H]4[C@H]3CC[C@]3(C)C(C5=CC(=O)OC5)C(OC(C)=O)C[C@]43O)C2)OC(C)C1O` (stereo not given in full), 2.26.
As for `C[C@H]1O[C@@H](O[C@H]2CC[C@]3(C=O)[C@H]4CC[C@]5(C)[C@@H](C6=CC(=O)OC6)CC[C@]5(O)[C@@H]4CC[C@]3(O)C2)C[C@H](O)[C@@H]1O`, the logP was 0.3.
With `CO[C@H]1C[C@H](O[C@H]2CCC3(CO)C4CCC5(C)[C@@H](C6=CC(=O)OC6)CCC5(O)C4CCC3(O)C2)O[C@H](C)[C@H]1O` (stereo not given in full), the logP worked out at 0.56.

A further series can be described thus: method code SF-RC, from PMID: 582926.
With `CC(=O)OC1CC2(O)C3CCC4CC(O)CCC4(C)C3CCC2(C)C1C1=CC(=O)OC1` (stereo not given), the logP is 1.93.
Consider `CC1OC(OC2CCC3(C)C(CCC4C3CCC3(C)C(C5=CC(=O)OC5)CCC43O)C2)CC(O)C1O` (stereo not given), for which the log partition coefficient (logP) turned out to be 2.48.
Still for that read-out and setting: the value for `CC(=O)OC1C[C@@H](OC2C(O)C[C@@H](OC3C(O)C[C@@H](OC4CC[C@@]5(C)[C@H](CC[C@H]6[C@H]5CC(O)[C@]5(C)C(C7=CC(=O)OC7)CC[C@]65O)C4)OC3C)OC2C)OC(C)C1O[C@H]1OC(CO)C(O)C(O)C1O` (stereo not given in full) was 0.07; that for `CC1O[C@H](O[C@H]2CC[C@]3(CO)C4CC[C@]5(C)[C@@H](C6=CC(=O)OC6)CC[C@]5(O)C4CC[C@]3(O)C2)C(O)C(O)[C@@H]1O` (stereo not given in full) was -0.62; that for `C[C@H]1O[C@@H](O[C@H]2[C@@H](O)C[C@H](O[C@H]3CC[C@@]4(C)[C@@H](CC[C@@H]5[C@@H]4CC[C@]4(C)[C@@H](C6=CC(=O)OC6)CC[C@]54O)C3)O[C@@H]2C)C[C@H](O)[C@@H]1O` was 2.15.
Same read-out and setting: the value for `CC1OC(OC2CCC3(C)C(CCC4C3CC(O)C3(C)C(C5=CC(=O)OC5)CCC43O)C2)CC(O)C1OC1CC(O)C(OC2CC(O)C(OC3OC(C(=O)O)C(O)C(O)C3O)C(C)O2)C(C)O1` (stereo not given) was -1.77; that for `C[C@H]1O[C@@H](O[C@H]2CC[C@@]3(C)[C@H](CC[C@@H]4[C@@H]3CC[C@]3(C)[C@@H](C5=CC(=O)OC5)CC[C@]43O)C2)C[C@H](O)[C@@H]1O[C@H]1C[C@H](O)[C@H](O[C@H]2C[C@H](O)[C@H](O[C@@H]3O[C@H](C(=O)O)[C@@H](O)[C@H](O)[C@H]3O)[C@@H](C)O2)[C@@H](C)O1` was -1.1; that for `CO[C@H]1CC(O[C@H]2CC[C@@]3(C)[C@H](CC[C@@H]4[C@@H]3CC[C@]3(C)[C@@H](C5=CC(=O)OC5)[C@@H](OC(C)=O)C[C@]43O)C2)O[C@@H](C)[C@@H]1OC(C)=O` (stereo not given in full) was 2.95.
For the compound `C[C@]12CC[C@H](O)C[C@H]1CC[C@H]1C3=CC[C@H](C4=CC(=O)OC4)[C@@]3(C)CC[C@@H]12`, the log partition coefficient (logP) is 2.52.
`CO[C@H]1[C@@H](O)C[C@H](O[C@H]2[C@@H](O)C[C@H](O[C@H]3[C@@H](O)C[C@H](O[C@H]4CC[C@@]5(C)[C@H](CC[C@@H]6[C@@H]5C[C@@H](O)[C@]5(C)[C@@H](C7=CC(=O)OC7)CC[C@]65O)C4)O[C@@H]3C)O[C@@H]2C)O[C@@H]1C` registered a lipophilicity (logP) of 1.73.
On the same count and under the same terms, the value for `CO[C@H]1C[C@H](O[C@H]2CC[C@@]3(C)[C@H](CC[C@@H]4[C@@H]3CC[C@]3(C)[C@@H](C5=CC(=O)OC5)CC[C@]43O)C2)O[C@@H](C)[C@@H]1O` was 2.37.
Same read-out and setting: under `CC1OC(OC2CCC3(C)C(CCC4C3CCC3(C)C(C5=CC(=O)OC5)C(O)CC43O)C2)CC(O)C1O` (stereo not given) stands 1.76; under `CO[C@H]1CC(O[C@H]2CC[C@@]3(C)[C@H](CC[C@@H]4[C@@H]3CC[C@]3(C)[C@@H](C5=CC(=O)OC5)[C@@H](OC(C)=O)C[C@]43O)C2)O[C@H](C)C1=O` (stereo not given in full), 1.65; under `CC(=O)O[C@H]1C[C@H](O[C@H]2[C@@H](O)C[C@H](O[C@H]3[C@@H](O)C[C@H](O[C@H]4CC[C@@]5(C)[C@@H](CC[C@@H]6[C@H]5CC[C@]5(C)[C@@H](C7=CC(=O)OC7)CC[C@]65O)C4)O[C@@H]3C)O[C@@H]2C)O[C@H](C)[C@H]1O[C@@H]1O[C@H](CO)[C@@H](O)[C@H](O)[C@H]1O`, 1.23.
The same measure, in the same setting: under `CC(=O)OC1CC(OC2C(O)CC(OC3C(O)CC(OC4CCC5(C)C(CCC6C5CC(O)C5(C)C(C7=CC(=O)OC7)CCC65O)C4)OC3C)OC2C)OC(C)C1O` (stereo not given) stands 1.97.

Another series is described as follows: method code SF-AS, from PMID: 582926.
Consider `C[C@@H]1O[C@@H](O[C@@H]2C=C3CC[C@@H]4[C@H](CC[C@]5(C)[C@@H](c6ccc(=O)oc6)CC[C@]45O)[C@@]3(C)CC2)[C@H](O)[C@H](O)[C@H]1O`, for which the lipophilicity (logP) came out at 2.48.

What is called logP is a log measure of how a compound divides between an organic and an aqueous phase. Lower therefore signals lower lipophilicity.
